Biological target: T1, OR4E2 (Homo sapiens, UniProt Q8NGC2, Q234R/V118M)
T1 construct: expressed in transfected cells; host or cells: HEK293T cells expressing hRTP1s, transiently transfected with pcDNA5-OR4E2 and pNL(NlucP/CRE/Hygro)
T1 sequence (Q8NGC2 1-313 V118M/Q234R): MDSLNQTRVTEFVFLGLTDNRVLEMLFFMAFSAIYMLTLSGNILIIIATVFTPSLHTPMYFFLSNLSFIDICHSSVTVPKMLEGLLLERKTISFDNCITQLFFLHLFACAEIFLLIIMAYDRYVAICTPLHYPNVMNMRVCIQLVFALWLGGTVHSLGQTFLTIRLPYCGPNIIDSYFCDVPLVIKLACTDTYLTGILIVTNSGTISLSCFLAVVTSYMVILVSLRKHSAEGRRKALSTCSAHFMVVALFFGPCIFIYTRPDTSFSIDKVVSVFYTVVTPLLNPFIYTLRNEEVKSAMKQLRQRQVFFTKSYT
Experiment: OR4E2 CRE-NanoLuc luciferase reporter assay in transiently transfected HEK293T cells
Type: cell-based
Settings: for response of OR4E2 to increasing concentrations of sulphur odorant (OR4E2 activation): seven concentrations 3-300 μM, 4 hours stimulation, luciferase activity, FIGS. 1A and 1B
Protocol: The experiments were performed using HEK293T cells (available e.g. from GE Healthcare) […] expressing the auxiliary protein hRTP1s, essential for efficient receptor trafficking to the plasma membrane (NPL 10, NPL 11; and NPL 12). The cell line was maintained in Dulbecco's modified Eagle Medium (DMEM, Euroclone) supplemented with 10% FBS (Fetal Bovine Serum, Euroclone cat. ECS0180L), 1% Penicillin/Streptomycin (Euroclone cat. B3001D), 50 μg/mL G418, […], and 10 μg/mL Zeocin.
The cDNA for OR4E2 was generated by custom gene synthesis (LifeTechnologies). The receptor DNA was then subcloned in frame 3′ from a transmembrane, localization epitope into a pcDNA5 expression vector (NPL 13). The correct identity of the receptor was checked by automated sequencing.
All sulphur odorants were prepared as 100 mM stock solutions using DMSO as a solvent and stored at −20″C. Copper(II) sulfate was prepared as an aqueous 30 mM stock solution. […]
The cDNA for the OR4E2 receptor was co-transfected with pNL(NlucP/CRE/Hygro) (Promega). […] The enzyme is about 100-fold brighter than either firefly (Photinus pyralis) or Renilla reniformis luciferase using a novel substrate, furimazine, to produce high intensity, glow-type luminescence. […]
24 hours post-transfection the medium was removed from the transfected cells and 30 μL of Tyrode's buffer containing the diluted sulphur odorant were added over 4 hours at 37° C. The cells were then transferred into an automated fluorometric imaging plate reader (FLIPR Tetra (registered trademark), Molecular Devices). […]
The data obtained from different well replicates (n=4) were analysed with Excel, ScreenWorks, and SigmaPiot 11, The responses of the receptor to the sulphur odorants were divided by the mean responses of the receptor towards Tyrode's buffer (fold of change: FOC). The mean and standard deviation of the resulting FOC values were calculated and plotted in vertical bar charts or concentration-response curves fitted by the SigmaPlot 11 software. […]

response of OR4E2 to increasing concentrations of sulphur odorant (OR4E2 activation) | Structure (SMILES) | OR4E2 activator (used at 300 μM as activating sulphur odorant in Example 2)
– | CSCSC [2,4-dithiapentane] | OR4E2 activator
positive effect | C=CCSSSCC=C [diallyl trisulfide] | –
positive effect | CC(C)(S)CCO [3-mercapto-3-methylbutanol] | –

From patent US20210181180A1, “METHOD FOR IDENTIFYING MALODOUR COUNTERACTANTS” (TAKASAGO INTERNATIONAL CORPORATION, priority 2016, published 2021)
